Source: paper PMC3901259, “Characterisation of the Metabolites of 1,8-Cineole Transferred into Human Milk: Concentrations and Ratio of Enantiomers” (Metabolites, 2013)

Assays:
[1] = Determination of the ratios of enantiomers of chiral metabolites in human milk on chiral GC capillaries; format: in vivo
From the text: The separation of the chiral metabolites of 1,8-cineole was successfully achieved using different β- or γ-cyclodextrin-based stationary phases (Rt-bDEXsa, Rt-bDEXse, Rt-bDEXsm and Rt-yDEXsa) for gas chromatographic analysis. Table S1, in the supplementary material, lists the usable separation phases and the respective retention indices (determined according to van den Dool and Kratz) for each pair of enantiomers. It was therefore decided to use the following capillaries for the analysis of the human milk samples: Rt-bDEXsm for separation of 2,3-dehydro-, α2,3-epoxy-, 2-oxo-, 3-oxo- and 9-hydroxy-1,8-cineole, and Rt-yDEXsa for separation of α2-hydroxy-, α3-hydroxy- and β2-hydroxy-1,8-cineole, under the GC conditions described in the experimental section.
For GC-MS analyses, an Agilent MSD quadrupole system (GC 7890A with MSD 5975C, Agilent Technologies, Waldbronn, Germany) coupled with a CIS 4C (cooled injection system) and an MPS 2 auto-sampler (Gerstel GmbH & Co. KG, Duisburg, Germany) were used. Data collection and analysis were performed with the MSD ChemStation E.02.00.493 (Agilent Technologies, Inc.) software. Quantification experiments were carried out on DB-FFAP and DB-5 capillaries (30 m length, 0.25 mm inner diameter, 0.25 µm film thickness, Agilent J&W GC Columns, USA), and for monitoring of the ratio of enantiomers the chiral capillaries Rt-bDEXsa, Rt-bDEXse, Rt-bDEXsm and Rt-yDEXsa (30 m length, 0.32 mm inner diameter, 0.25 µm film thickness, Restek GmbH, Bad Homburg, Germany) were utilised. Pre-columns of uncoated, deactivated fused silica (0.53 mm inner diameter, 0.5 to 3.5 m length) were used to ensure that no potentially present low-volatile residues could contaminate the analytical capillaries. The temperature programme of the column oven was as follows: 40 °C for 2 min, 4 °C/min up to 170 °C, 40 °C/min up to 230 °C (Rt-DEX capillaries), 240 °C (DB-FFAP) and 250 °C (DB-5), respectively, and hold time at end temperature of 5 to 10 min. As carrier gas, helium was used at a flow rate of 1.3 mL/min (velocity 41.1 cm/s). Injection of 1 or 2 µL was performed by the auto-sampler.
For the separation of the pairs of enantiomers of the chiral metabolites of 1,8-cineole, four different capillaries (Rt-bDEXsa, Rt-bDEXse, Rt-bDEXsm, and Rt-yDEXsa) were evaluated for optimisation of the peak-to-peak resolution of the enantiomers by injecting a mixture of all the metabolites in a dichloromethane solution and by varying the heating rate. Besides the separation of each pair of enantiomers from each other, it was also important to confirm that no other metabolite coeluted with any one of the enantiomers, because the milk samples would most probably contain all metabolites. Moreover, the separation conditions for the mixture of reference substances were also tested on some human milk sample extracts and modified accordingly, where necessary, to avoid coelution with interfering matrix compounds.
For calculation of the ratio of enantiomers (that is, the relative abundance of each enantiomer to the not separated mixture of enantiomers), the peak area of each enantiomer was divided by the sum of the peak areas of both enantiomers and multiplied by 100. With the known concentrations of the chiral metabolites in each milk sample, the absolute concentration of each single enantiomer was also calculated by multiplying the concentration with the respective percentage.

[2] = Quantification of 1,8-cineole metabolites in human milk (SAFE, GC-MS, internal standard and matrix calibration) after oral intake of 100 mg 1,8-cineole; format: in vivo; conditions: for Absolute concentration in human milk: single determination
From the text: Human milk samples were provided voluntarily by breastfeeding mothers after intake of the non-prescription pharmaceutical Soledum® (Klosterfrau Healthcare Group, Cologne, Germany). Before the beginning of the study, the participants were informed verbally, as well as in written form, about the study procedure and purpose and they were told that withdrawing from the study was possible at any time without giving any reason. All volunteers gave written consent to the analysis of their milk samples and anonymous publication of the resulting data. The Ethical Committee of the Medical Faculty, University Erlangen-Nuremberg, approved the experimental procedures. Each participant was handed a copy of the Soldeum® package instructions and was advised to read it before capsule intake. They were also advised to withdraw from the study if any negative reactions such as medication allergies or interactions with other drugs they were taking were to be expected. Additionally, the volunteers were informed verbally about potential effects of the pharmaceutical preparation on breastfeeding, i.e. the risk of an altered milk flavour and rejection of the milk by the nursling. Accordingly, if this would happen, the mothers were recommended to feed their babies with stored human milk or formula milk products.
The milk donors were between the ages of 29 and 40 years (mean 34 years). During their participation in the study, their breast milk production had to be normal and in excess of their infants' needs, with no breast infections and no overall medical complaints present. Five participants were primiparous, three were multiparous and the breast milk samples were from 19 weeks to 19 months postpartum. For sampling, either electrical or mechanical breast pumps or manual expression techniques were applied, resulting in sample volumes between 10 and 100 mL. The samples were immediately subjected to sample preparation after a maximum storage time of five hours at 7 °C or were stored in a freezer at −20 °C for up to five days.
The participating volunteers were asked to ingest one Soledum® capsule, containing 100 mg 1,8-cineole, and to wait until they themselves or another person began to notice the eucalyptus-like odour on their breath. […] The donors were instructed to keep notes on the dates of capsule intake, first eucalyptus-like odour on their breath and exact sampling time. Unfortunately it was difficult for some mothers to detect the smell on their breath so they expressed the samples after some time without having noticed the smell, or reported having been unsure about the smell. […] Some of the donors repeated the whole experiment and some expressed more than one sample after the capsule intake, resulting in 14 samples in total, from 8 different mothers.
Extracts containing the volatile fraction of the human milk samples were prepared by Solvent Assisted Flavour Evaporation (SAFE) after addition of deuterated 1,8-cineole as internal standard (solution in dichloromethane), followed by 10 min of stirring, then another addition of dichloromethane (50% v/v), and 30 min of stirring. The resulting stable phase was distilled in the SAFE-apparatus at 50 °C and approximately 1x10^−4 mbar. The volatile fraction of the samples was frozen with liquid nitrogen. After thawing, it consisted of two phases, formed by the dichloromethane and by the water out of the milk. The water phase was extracted three times with dichloromethane, and the solvent phases were combined and dried over anhydrous Na2SO4. Finally the sample extracts were concentrated by microdistillation according to Bemelmans at 50 °C to a total volume of 50 to 200 μL.
For GC-MS analyses, an Agilent MSD quadrupole system (GC 7890A with MSD 5975C, Agilent Technologies, Waldbronn, Germany) coupled with a CIS 4C (cooled injection system) and an MPS 2 auto-sampler (Gerstel GmbH & Co. KG, Duisburg, Germany) were used. […]

[3] = design: method as in PMID 20425757; conditions: one volunteer, sage tea, overall intake 1.02 mg 1,8-cineole; cited from earlier work
[4] = sample A-1b (odour yes), oral 100 mg 1,8-cineole, values given with (<x) are approximations
[5] = sample B-1 (odour yes), oral 100 mg 1,8-cineole, values given with (<x) are approximations
[6] = sample B-2b (odour yes), oral 100 mg 1,8-cineole, values given with (<x) are approximations
[7] = sample B-2c (no odour), oral 100 mg 1,8-cineole
[8] = sample C (no odour; very weak odour not caused by 1,8-cineole), oral 100 mg 1,8-cineole, values given with (<x) are approximations
[9] = sample D-1 (no odour), oral 100 mg 1,8-cineole, values given with (<x) are approximations
[10] = sample D-2 (odour yes), oral 100 mg 1,8-cineole, values given with (<x) are approximations
[11] = sample E-2 (odour yes), oral 100 mg 1,8-cineole, values given with (<x) are approximations
[12] = sample F (no odour), parent ingested two capsules, values given with (<x) are approximations
[13] = sample G (odour yes), oral 100 mg 1,8-cineole, values given with (<x) are approximations
[14] = sample H (odour yes), oral 100 mg 1,8-cineole, values given with (<x) are approximations

| Absolute concentration in human milk [2, 4] [µg/kg] | Absolute concentration in human milk [2, 5] [µg/kg] | Estimated maximum level in human milk (concentration calculated with the last calibration point, in parentheses) ([2]; sample B-2b (odour yes)) [µg/kg] | Absolute concentration in human milk [2, 6] [µg/kg] | Absolute concentration in human milk [2, 7] [µg/kg] | Estimated maximum level in human milk (concentration calculated with the last calibration point, in parentheses) ([2]; sample C (no odour)) [µg/kg] | Absolute concentration in human milk [2, 8] [µg/kg] | Estimated maximum level in human milk (concentration calculated with the last calibration point, in parentheses) ([2]; sample D-1 (no odour)) [µg/kg] | Absolute concentration in human milk [2, 9] [µg/kg] | Estimated maximum level in human milk (concentration calculated with the last calibration point, in parentheses) ([2]; sample D-2 (odour yes)) [µg/kg] | Absolute concentration in human milk [2, 10] [µg/kg] | Absolute concentration in human milk [2, 11] [µg/kg] | Absolute concentration in human milk [2, 12] [µg/kg] | Estimated maximum level in human milk (concentration calculated with the last calibration point, in parentheses) ([2]; sample G (odour yes)) [µg/kg] | Absolute concentration in human milk [2, 13] [µg/kg] | Absolute concentration in human milk [2, 14] [µg/kg] | SMILES | Concentration in plasma [3] | further results |
| --- | --- | --- | --- | --- | --- | --- | --- | --- | --- | --- | --- | --- | --- | --- | --- | --- | --- | --- |
| 1.80 | 3.32 | < 2.37 | 1.47 | 0.68 | < 1.10 | 0.14 | < 1.22 | 0.77 | < 2.20 | 2.12 | 2.41 | 0.07 | < 4.02 | 3.38 | 3.85 | CC12CCC(C(=O)C1)C(C)(C)O2 (stereo not shown) [3-oxo-1,8-cineole] | – | Enantiomeric ratio in human milk [1]: nearly enantiomerically pure; Percentage E1, range as described for boxplot ([1]; human milk samples, Figure 5): under 10%; Estimated maximum level in human milk (concentration calculated with the last calibration point, in parentheses) ([2]; sample A-1a (no odour)): < 1.57 µg/kg; Absolute concentration in human milk ([2]; sample A-1a (no odour), oral 100 mg 1,8-cineole, values given with (<x) lie beyond calibration range, approximation): 0.01 µg/kg; Estimated maximum level in human milk (concentration calculated with the last calibration point, in parentheses) ([2]; sample F (no odour), two capsules): < 3.00 µg/kg |
| 5.96 | 6.35 | – | 5.62 | 2.32 | – | – | – | 2.24 | – | 7.13 | 8.92 | 3.62 | – | 3.39 | 5.66 | CC12CCC(O)(CC1)C(C)(C)O2 [4-hydroxy-1,8-cineole] | – | – |
| 0.56 | 1.14 | – | 4.42 | 0.18 | – | – | – | – | – | 0.62 | 5.19 | – | < 1.06 | 0.84 | 1.87 | CC1(C)OC2(CO)CCC1CC2 [7-hydroxy-1,8-cineole] | below the limit of quantitation | Absolute concentration in human milk ([2]; sample B-2a (no odour), oral 100 mg 1,8-cineole): 0.21 µg/kg |
| 0.77 | 1.06 | < 2.07 | 0.54 | 0.05 | < 0.96 | 0.05 | < 1.06 | 0.03 | < 1.92 | 0.41 | 0.96 | – | < 3.51 | 0.72 | 1.53 | CC12CCC(C(O)C1)C(C)(C)O2 (stereo not drawn) [a3-hydroxy-1,8-cineole, α3-Hydroxy-1,8-cineole] | below the limit of quantitation | Estimated maximum level in human milk (concentration calculated with the last calibration point, in parentheses) ([2]; sample A-1b (odour yes)): < 1.14 µg/kg; Estimated maximum level in human milk (concentration calculated with the last calibration point, in parentheses) ([2]; sample B-1 (odour yes)): < 1.65 µg/kg; Estimated maximum level in human milk (concentration calculated with the last calibration point, in parentheses) ([2]; sample E-2 (odour yes)): < 1.78 µg/kg; Estimated maximum level in human milk (concentration calculated with the last calibration point, in parentheses) ([2]; sample H (odour yes)): < 1.96 µg/kg |
| 6.00 | 6.72 | – | 5.82 | 1.71 | < 0.96 | 0.33 | – | 1.42 | – | 7.35 | 11.44 | – | – | 3.80 | 7.90 | CC1(C)OC2(C)CCC1CC2O (stereo not drawn) [b2-hydroxy-1,8-cineole, β2-hydroxy-1,8-cineole] | – | – |
